This is an account of results in patent US10144742B2 (Millennium Pharmaceuticals, Inc., priority 2014, dated 2018).

One test relates to PC3 cells. Description: PC3 growth inhibition (Cell-titer glo, 72 hours). The class given is cell-based. As to conditions: Homo sapiens, PC-3, PC3 cells, 72 hours, Cell-titer glo, read-out: Percent Inhibition (PC3 growth inhibition); for inhibition at 1.667 µM: compound concentration 1.667 μM; for inhibition at 1 µM: compound concentration 1 μM. Here is the method:
The ability of a compound of the invention to inhibit the growth of cells can be measured using a variety of methods known in the art. For example, the ability of a compound of the invention to inhibit the growth of PC3 cells can be measured. PC3 cells can be plated and incubated overnight under CO2. For each measurement, a compound of the invention (or vehicle e.g., DMSO) can be diluted with AIM serum free medium and added to the cell plate. The cell plate can then be incubated for 72 h under CO2. Cell-titer glo solution can be added and the plates can be incubated protected from light and the amount of luminescences can be measured. Concentration response curves can be generated by calculating the luminescence increase in test compound treated samples relative to DMSO-treated controls. Percentage remaining viability values at a single concentration can be measured. Growth inhibition (GI50) or cell viability (LD50) values can be determined from those curves.
Compounds of the invention were assayed to measure PC3 growth inhibition at a concentration of 1 μM or 1.667 μM (Table 3). To measure PC3 growth inhibition, PC3 cells that were maintained in PRMI1640 growth medium (Life Technologies; Cat. No. 11875) at 37° C. under 5% CO2 are trypsinized and diluted at a density of 8×10^4 cells/ml, 25 ul per well of cells and plated in 384-well black tissue culture plate. The cells are incubated overnight at 37° C. under 5% CO2. For each measurement, a test compounds or vehicle control (DMSO) are diluted with AIM serum free medium and added to the cell plate. Incubate for 72 hours at 37° C. under 5% CO2. 25 μl Cell-titer glo solution (Promega; Cat. No. G8462) is added and the cell plates are incubated for 10 minutes protected from light. The luminescence is measured. Concentration response curves are generated by calculating the luminescence increase in test compound-treated samples relative to DMSO-treated controls. Percentage remaining viability values at a single concentration, growth inhibition (GI50) or cell viability (LD50) values are determined from those curves. One skilled in the art will appreciate that these values are subject to experimental variation.

Another test deals with hNAMPT protein (Homo sapiens (Human), UniProt P43490). Description: NAMPT enzyme assay (TR-FRET/HTRF, BodiPY ligand, anti 6His-Tb). The class given is binding. As to conditions: for IC50: read-out: IC50; for inhibition at 1 µM: read-out: Percent Inhibition. The source says:
As discussed above, the invention provides compounds that are useful as inhibitors of the enzyme NAMPT. The NAMPT inhibition of a compound of the invention can be measured using a variety of methods known in the art. For example, the ability of a compound of the invention to inhibit NAMPT enzyme activity can be measured using a homogeneous time resolved fluorescence (HTRF) assay using hNAMPT protein and anti 6His-Tb in buffer treated with a compound of the invention (or control e.g., DMSO) and BodiPY ligand. The TR-FRET signal can be measured using a high throughput microplate reader (e.g., Pherastar). Excitation can be carried out at 320 nm. The percent inhibition value at a single concentration of compound of the invention can be calculated relative to a control treated sample. A concentration response curve can be generated for each compound of the invention and the curve fitted to generate an IC50 value. […] Cat. No. […] To this solution is added test compounds or vehicle control (DMSO) and BodiPY ligand (structure below). The plate is shaken for 1-2 min, sealed and incubated for 1 hour at rt in the dark. The TR-FRET signal is measured using BMG Pherastar (Lanthascreen protocol on BMG Pherastar). Excitation was carried out at 320 nm, and the ratio of emission of BodiPY (520 nm) to terbium (486 nm) was determined. Concentration response curves are generated by calculating the excitation increase in test compound-treated samples relative to DMSO-treated controls. For the assay method described above, test compound percent inhibition values at a single concentration are calculated relative to control (DMSO) treated samples. Compound concentration response curves are fitted to generate IC50 values from those curves. One skilled in the art will appreciate that these values generated either as percentage inhibition at a single concentration or IC50 values are subject to experimental variation.

Where two headings read alike, the source gives them in different places.

hNAMPT protein, sequence (P43490 whole entry): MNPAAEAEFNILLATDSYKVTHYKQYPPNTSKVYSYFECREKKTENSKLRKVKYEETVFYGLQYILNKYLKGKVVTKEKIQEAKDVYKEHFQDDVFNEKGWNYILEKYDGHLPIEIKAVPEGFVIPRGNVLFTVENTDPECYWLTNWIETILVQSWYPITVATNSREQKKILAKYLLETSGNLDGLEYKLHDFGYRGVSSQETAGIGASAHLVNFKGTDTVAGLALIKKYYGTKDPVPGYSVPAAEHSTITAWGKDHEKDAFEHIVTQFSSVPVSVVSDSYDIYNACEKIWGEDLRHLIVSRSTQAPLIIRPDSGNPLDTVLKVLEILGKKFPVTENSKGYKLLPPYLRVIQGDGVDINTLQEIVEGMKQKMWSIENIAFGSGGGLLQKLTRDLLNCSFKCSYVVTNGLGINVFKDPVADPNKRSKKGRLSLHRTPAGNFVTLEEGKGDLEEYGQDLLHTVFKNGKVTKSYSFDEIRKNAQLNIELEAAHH

With `O=C(NCCc1ncc[nH]1)c1ccc2nc(N3CCCCC3)c(-c3ccc(F)cc3)nc2c1` [Compound I-1, 3-(4-Fluorophenyl)-N-[2-(1H-imidazol-2-yl)ethyl]-2-(piperidin-1-yl)quinoxaline-6-carboxamide], the inhibition at 1.667 µM in the test on PC3 cells turned out to be 3%. Also, the IC50 at hNAMPT protein (NAMPT IC50 range class) was in the range of 500 to 1000 nM. Besides, the inhibition at 1 µM at hNAMPT protein (compound concentration 1 μM) was determined as 51%.

`CC(=O)Nc1cccc(-c2nc3ccc(C(=O)NCCCn4ccnc4)cc3nc2-c2ccccc2)c1` [Compound I-2, 2-(3-acetamidophenyl)-N-[3-(1H-imidazol-1-yl)propyl]-3-phenylquinoxaline-6-carboxamide]: the inhibition at 1 µM in the test with PC3 cells was -7%; on hNAMPT protein (compound concentration 1 μM), 77%. In addition, at hNAMPT protein (NAMPT IC50 range class), the IC50 lay within 100 to 500 nM.

Regarding `CN1CC=C(c2nc3cc(C(=O)NCCCn4ccnc4)ccc3nc2-c2ccccc2)CC1` [Compound I-3, N-[3-(1H-imidazol-1-yl)propyl]-3-(1-methyl-1,2,3,6-tetrahydropyridin-4-yl)-2-phenylquinoxaline-6-carboxamide], the inhibition at 1 µM in the test on PC3 cells was 39%; on hNAMPT protein (compound concentration 1 μM), 9%. The IC50 on hNAMPT protein (NAMPT IC50 range class) fell in the range of 2000 to 10000 nM.

For the compound `Cn1cncc1CCNC(=O)c1ccc2nc(N3CCCCC3)c(-c3ccc(F)cc3)nc2c1` [Compound I-4, 3-(4-fluorophenyl)-N-[2-(1-methyl-1H-imidazol-5-yl)ethyl]-2-(piperidin-1-yl)quinoxaline-6-carboxamide], the inhibition at 1.667 µM with PC3 cells came to 2%. For the same compound, the IC50 on hNAMPT protein (NAMPT IC50 range class) is below 100 nM. Besides, on hNAMPT protein (compound concentration 1 μM), the inhibition at 1 µM turned out to be 93%.

On to `O=C(NCCCn1ccnc1)c1ccc2nc(-c3ccncc3)c(-c3ccccc3)nc2c1` [Compound I-5, N-[3-(1H-imidazol-1-yl)propyl]-3-phenyl-2-(pyridin-4-yl)quinoxaline-6-carboxamide], for which the inhibition at 1 µM in the test with PC3 cells was -7%; at hNAMPT protein (compound concentration 1 μM), 53%. The IC50 on hNAMPT protein (NAMPT IC50 range class) is 500 to 1000 nM.

In the case of `NC(=O)c1ccc(-c2nc3cc(C(=O)NCCCn4ccnc4)ccc3nc2-c2ccccc2)cc1` [Compound I-6, 3-(4-carbamoylphenyl)-N-[3-(1H-imidazol-1-yl)propyl]-2-phenylquinoxaline-6-carboxamide], the values for the inhibition at 1 µM in the test on PC3 cells and at hNAMPT protein (compound concentration 1 μM) were 91% and 20%, respectively. The IC50 at hNAMPT protein (NAMPT IC50 range class) is 2000 to 10000 nM.

As to `O=C1CN(c2nc3ccc(C(=O)NCCCn4ccnc4)cc3nc2-c2ccccc2)CN1` [Compound I-7, N-[3-(1H-imidazol-1-yl)propyl]-2-(4-oxoimidazolidin-1-yl)-3-phenylquinoxaline-6-carboxamide], the figures for the inhibition at 1 µM in the test with PC3 cells and on hNAMPT protein (compound concentration 1 μM) were 105% and 12%, respectively. For the same compound, on hNAMPT protein (NAMPT IC50 range class), the IC50 fell in the range of 2000 to 10000 nM.

For `O=C(NCCCn1nnnc1S)c1ccc2nc(-c3ccc(F)cc3)c(-c3ccc(F)cc3)nc2c1` [Compound I-8, 2,3-bis(4-fluorophenyl)-N-[3-(5-sulfanyl-1H-tetrazol-1-yl)propyl]quinoxaline-6-carboxamide], the inhibition at 1 µM was found to be 103% in the test on PC3 cells and 43% at hNAMPT protein (compound concentration 1 μM). In addition, the IC50 on hNAMPT protein (NAMPT IC50 range class) was 1000 to 2000 nM.

For `Cc1nc(C)c(-c2nc3cc(C(=O)NCCCn4ccnc4)ccc3nc2-c2ccccc2)s1` [Compound I-9, 3-(2,4-dimethyl-1,3-thiazol-5-yl)-N-[3-(1H-imidazol-1-yl)propyl]-2-phenylquinoxaline-6-carboxamide], the inhibition at 1 µM in the test on PC3 cells was 1%; at hNAMPT protein (compound concentration 1 μM) it was 36%. Further, the IC50 on hNAMPT protein (NAMPT IC50 range class) fell in the range of 1000 to 2000 nM.

With `NCc1nc2ccc(C(=O)NCCCn3ccnc3)cc2nc1-c1ccccc1` [Compound I-10, 2-(aminomethyl)-N-[3-(1H-imidazol-1-yl)propyl]-3-phenylquinoxaline-6-carboxamide], the values for the inhibition at 1 µM in the test on PC3 cells and at hNAMPT protein (compound concentration 1 μM) were 99% and 23%, respectively. Moreover, on hNAMPT protein (NAMPT IC50 range class), the IC50 lay in the range of 2000 to 10000 nM.

In the case of `O=C(NCCCn1ccnc1)c1ccc2nc(N3Cc4ccccc4C3)c(-c3ccccc3)nc2c1` [Compound I-11, 2-(1,3-dihydro-2H-isoindol-2-yl)-N-[3-(1H-imidazol-1-yl)propyl]-3-phenylquinoxaline-6-carboxamide], the inhibition at 1 µM was -7% in the test on PC3 cells and 85% at hNAMPT protein (compound concentration 1 μM). Besides, at hNAMPT protein (NAMPT IC50 range class), the IC50 was 100 to 500 nM.

Regarding `COc1cccc(-c2nc3cc(C(=O)NCCCc4ncc[nH]4)ccc3nc2N2CCC(O)CC2)c1` [Compound I-12, 2-(4-hydroxypiperidin-1-yl)-N-[3-(1H-imidazol-2-yl)propyl]-3-(3-methoxyphenyl)quinoxaline-6-carboxamide], the inhibition at 1.667 µM with PC3 cells came out at 2%. Also, on hNAMPT protein (NAMPT IC50 range class), the concentration for half-maximal inhibition (IC50) was below 100 nM. Also, the inhibition at 1 µM at hNAMPT protein (compound concentration 1 μM) is above 99%.

In the case of `COc1ccccc1-c1nc2ccc(C(=O)NCCCn3ccnc3)cc2nc1-c1ccccc1` [Compound I-13, N-[3-(1H-imidazol-1-yl)propyl]-2-(2-methoxyphenyl)-3-phenylquinoxaline-6-carboxamide], the values for the inhibition at 1 µM with PC3 cells and on hNAMPT protein (compound concentration 1 μM) were -6% and 69%, respectively. In addition, the IC50 on hNAMPT protein (NAMPT IC50 range class) lay in the range of 100 to 500 nM.

With `O=C(NCCCn1ccnc1)c1ccc2nc(-c3ccccc3)c(N3CCS(=O)(=O)CC3)nc2c1` [Compound I-14, 3-(1,1-dioxidothiomorpholin-4-yl)-N-[3-(1H-imidazol-1-yl)propyl]-2-phenylquinoxaline-6-carboxamide], the inhibition at 1 µM with PC3 cells was -3%; at hNAMPT protein (compound concentration 1 μM) it was 17%. Also, the half-inhibitory concentration (IC50) on hNAMPT protein (NAMPT IC50 range class) fell in the range of 2000 to 10000 nM.

`O=C(NCCCn1ccnc1)c1ccc2nc(-c3ccccc3)c(N3CCC4(COC4)C3)nc2c1` [Compound I-15, N-[3-(1H-imidazol-1-yl)propyl]-3-(2-oxa-6-azaspiro[3.4]oct-6-yl)-2-phenylquinoxaline-6-carboxamide]: the inhibition at 1 µM in the test on PC3 cells was -6%; on hNAMPT protein (compound concentration 1 μM), 15%. Besides, the half-inhibitory concentration (IC50) on hNAMPT protein (NAMPT IC50 range class) lay in the range of 2000 to 10000 nM.

With `O=C(NCc1ccc2[nH]ncc2c1)c1ccc2nc(N3CCOCC3)c(-c3ccc(F)cc3)nc2c1` [Compound I-16, 3-(4-fluorophenyl)-N-(1H-indazol-5-ylmethyl)-2-(morpholin-4-yl)quinoxaline-6-carboxamide], the inhibition at 1.667 µM in the test on PC3 cells worked out at 39%. On hNAMPT protein (NAMPT IC50 range class), the IC50 is 100 to 500 nM. In addition, the inhibition at 1 µM at hNAMPT protein (compound concentration 1 μM) was determined as 84%.

As for `N#CC1CCN(c2nc3cc(C(=O)NCCCn4ccnc4)ccc3nc2-c2ccccc2)C1` (stereo not shown) [Compound I-17, 3-(3-cyanopyrrolidin-1-yl)-N-[3-(1H-imidazol-1-yl)propyl]-2-phenylquinoxaline-6-carboxamide], the values for the inhibition at 1 µM in the test with PC3 cells and at hNAMPT protein (compound concentration 1 μM) were 4% and 19%, respectively. Also, the IC50 on hNAMPT protein (NAMPT IC50 range class) fell in the range of 2000 to 10000 nM.

As for `O=C(c1ccc2nc(-c3ccc(F)cc3)c(-c3ccc(F)cc3)nc2c1)N1CCC(c2ncccn2)C1` (stereo not shown) [Compound I-294, [2,3-bis(4-fluorophenyl)quinoxalin-6-yl][3-(pyrimidin-2-yl)pyrrolidin-1-yl]methanone], the IC50 at hNAMPT protein (NAMPT IC50 range class) is 2000 to 10000 nM. Besides, the inhibition at 1 µM on hNAMPT protein (compound concentration 1 μM) came to 22%.

Take `COc1cccc(-c2nc3cc(C(=O)NCCCc4ncc[nH]4)ccc3nc2-c2ccc(F)cc2)n1` [Compound I-495, 2-(4-fluorophenyl)-N-[3-(1H-imidazol-2-yl)propyl]-3-(6-methoxypyridin-2-yl)quinoxaline-6-carboxamide]: on hNAMPT protein (NAMPT inhibition at compound concentration 1 μM), the inhibition at 1 µM stood at 96%. Moreover, the IC50 at hNAMPT protein (NAMPT inhibition, IC50 range class) is below 100 nM.
